The subject of one assay is AGE formation. In words: Inhibition of AGE formation (bovine serum albumin with fructose and glucose, fluorescence). It is filed as biochemical. As to conditions: 60 °C for 2 days, pH 7.4, mean ± S.D. (n = 3); for IC50: isolated compounds, read-out: IC50 AGEs Formation. How it is done: Inhibition of AGE formation was measured with a spectrophotometric method developed previously. All tested samples were dissolved in 10% DMSO at five different final concentrations (10–500 µg/mL for extracts and fractions or 10–500 µM for isolated constituents). The assay mixture contained bovine serum albumin (10 mg/mL), 50 mM phosphate buffer (pH 7.4) with 0.02% sodium azide, and 0.4 M fructose and glucose. The reaction was incubated at 60 °C for 2 days. After incubating, fluorescence was measured at an excitation wavelength of 350 nm and emission of 450 nm in a black 96-well plate. Aminoguanidine (AG), a typical inhibitor of AGE formation, was used as a positive control. The inhibitory activity was calculated with the following formula: (Ac − As/Ac) × 100, where Ac is the fluorescence of the control, and As is the fluorescence of the sample.

In assay [1] the target is T1, electric eel AChE (EC3.1.1.7) (Electrophorus electricus, UniProt O42275).
T1 construct: purchased Sigma-Aldrich Chemical Company (St. Louis, MO, USA)
Description: biochemical. How it is done:
(§1) n-Hexane (Hx), ethyl acetate (EA), n-butanol (BuOH), methanol (MeOH), ethanol (EtOH), and distilled water were used for extraction, fractionation, and open column chromatography. Open column chromatography used Sephadex LH-20 (25–100 μm; Pharmacia, Stockholm, Sweden), MCI CHP 20P (Supelco, St. Louis, MO, USA), and ODS gel (400–500 mesh; Waters, Milford, MA, USA). Dimethyl sulfoxide-d6 (DMSO-d6) and chloroform-d (CDCl3) were used for the NMR solution. MS was performed with ultra-high performance liquid chromatography and high-resolution mass spectrometry (UHPLC-HRMS) coupled with electrospray ionization hybrid linear trap-quadruple-Orbitrap MS (ESI/LTQ-Orbitrap) on an Ultimate 3000 rapid separation liquid chromatography (RSLC) system (Thermo, Darmstadt, Germany). ^1H- and ^13C-nuclear magnetic resonance (NMR) spectra were collected at 600 and 150 MHz, respectively, with a JEOL spectrometer. Chemical shifts are expressed as parts per million (ppm) on the δ scale, and coupling constants (J) are shown in Hertz. HPLC was conducted with Empower Pro 2.0 software (Waters, Milford, MA, USA), and determination was performed with a Waters 2695 system pump and Waters 996 Photodiode array detector (Waters, Milford, MA, USA). The separation column was a Waters Sunfire™ C18 column (4.6 × 250 mm, 5 μm). HPLC-grade solvents, such as acetonitrile (ACN), methanol (MeOH), and distilled water (H2O), were purchased from J. T. Baker® (Phillipsburg, PA, USA). HPLC-grade phosphoric acid and dimethyl sulfoxide (DMSO) were obtained from DEAJUNG Chemical (Siheung, Gyeonggi, Korea). Reagents and solvents including electric eel AChE (EC3.1.1.7), horse serum BChE (EC3.1.1.8), acetylthiocholine iodide (ACh), butyrylthiocholine chloride (BCh), 5,5′-dithiobis [2-nitrobenzoic acid] (DTNB), berberine, bovine serum albumin, aminoguanidine (AG), glucose, and fructose were purchased from Sigma-Aldrich Chemical Company (St. Louis, MO, USA). The BACE1 FRET assay kit (β-secretase) was purchased from PanVera Co. (Madison, WI, USA).
(§2) ChE activity was detected by AChE- or BChE-mediated hydrolysis of […] for 15 min to form thiocholine and the yellow 5-thio-2-nitrobenzoate anion. The result was quantified by measuring the absorbance 412 nm. The assay mixture contained 0.1 M potassium phosphate buffer (pH 7.8), 0.3 U/mL AChE or BChE, 0.5 mM DTNB, 0.6 mM ACh or BCh, and the sample for a total volume of 0.2 mL. All tested samples were dissolved in 10% DMSO at five different final concentrations (10–500 µg/mL for extracts and fractions or 10–500 µM for isolated constituents). The reaction was performed in a 96-well plate. […] Inhibitory activity was calculated with the following formula: (Ac − As/Ac) × 100, where Ac is the change in absorbance for the control after 15 min and As is the change in absorbance for the sample after 15 min.

Assay [2] deals with T2, horse serum BChE (EC3.1.1.8) (Equus caballus, UniProt P81908).
T2 construct: horse serum BChE (EC3.1.1.8); purchased Sigma-Aldrich Chemical Company (St. Louis, MO, USA); host or cells: horse serum
Description: biochemical. The method, then: as §1, with “(DTNB), berberine, bovine serum albumin, aminoguanidine (AG), glucose, and fructose were purchased from Sigma-Aldrich Chemical Company (St. Louis, MO, USA).” left out
as §2

In a further assay the target is BACE1 (Homo sapiens, UniProt P56817). In words: BACE1 FRET assay kit (β-secretase) inhibition. It is filed as biochemical. As to conditions: isolated compounds; 60 min, room temperature, pH 4.5; mean ± S.D. (n = 3). The method, then:
as §1, with “(DTNB), berberine, bovine serum albumin, aminoguanidine (AG), glucose, and fructose were purchased from Sigma-Aldrich Chemical Company (St. Louis, MO, USA).” left out
BACE1 inhibition was measured with a commercially available spectrophotometric method according to the manufacturer’s recommended protocol. The assay mixture contained 50 mM sodium acetate buffer (pH 4.5), 1.0 U/mL BACE1, substrate (750 nM Rh-[…]-Quencher in 50 mM ammonium bicarbonate), and sample. […] The reaction was incubated for 60 min at room temperature in the dark. BACE1 activity was determined by measuring the proteolysis of two fluorophores (Rh-[…]-Quencher) to form a fluorescent donor (Rh-EVNL) with an excitation of 545 nm and emission of 585 nm in a black 96-well plate. […] Inhibition was calculated with the following formula: (Ac − As/Ac) × 100, where Ac is the change in fluorescence for the control after 60 min, and As is the change in fluorescence for the sample after 60 min.

Where [3] appears, read: isolated compounds, 15 min, pH 7.8, mean ± S.D. (n = 3), read-out: IC50 AChE (converted).
Where [4] appears, read: isolated compounds, 15 min, pH 7.8, mean ± S.D. (n = 3), read-out: IC50 BChE.

Converted amounts (≈) assume the structure as drawn. Like-named read-outs stand apart in the source and are kept apart here.

T2 sequence (P81908 whole entry): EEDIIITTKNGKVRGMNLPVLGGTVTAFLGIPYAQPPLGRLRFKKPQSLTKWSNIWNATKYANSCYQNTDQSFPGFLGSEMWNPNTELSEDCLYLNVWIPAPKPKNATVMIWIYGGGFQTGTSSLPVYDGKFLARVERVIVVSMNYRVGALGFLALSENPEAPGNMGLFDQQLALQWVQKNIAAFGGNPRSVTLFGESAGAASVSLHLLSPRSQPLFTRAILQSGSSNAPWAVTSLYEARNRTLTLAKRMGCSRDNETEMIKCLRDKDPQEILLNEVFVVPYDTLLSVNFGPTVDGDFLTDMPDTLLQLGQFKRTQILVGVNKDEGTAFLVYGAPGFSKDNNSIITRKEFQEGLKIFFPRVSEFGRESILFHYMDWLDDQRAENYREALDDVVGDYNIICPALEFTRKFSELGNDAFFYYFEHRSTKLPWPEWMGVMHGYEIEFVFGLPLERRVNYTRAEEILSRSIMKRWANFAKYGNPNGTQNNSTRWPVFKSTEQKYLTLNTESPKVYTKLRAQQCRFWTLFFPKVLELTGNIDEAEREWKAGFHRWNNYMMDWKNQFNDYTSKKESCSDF
T1 sequence (O42275 24-633): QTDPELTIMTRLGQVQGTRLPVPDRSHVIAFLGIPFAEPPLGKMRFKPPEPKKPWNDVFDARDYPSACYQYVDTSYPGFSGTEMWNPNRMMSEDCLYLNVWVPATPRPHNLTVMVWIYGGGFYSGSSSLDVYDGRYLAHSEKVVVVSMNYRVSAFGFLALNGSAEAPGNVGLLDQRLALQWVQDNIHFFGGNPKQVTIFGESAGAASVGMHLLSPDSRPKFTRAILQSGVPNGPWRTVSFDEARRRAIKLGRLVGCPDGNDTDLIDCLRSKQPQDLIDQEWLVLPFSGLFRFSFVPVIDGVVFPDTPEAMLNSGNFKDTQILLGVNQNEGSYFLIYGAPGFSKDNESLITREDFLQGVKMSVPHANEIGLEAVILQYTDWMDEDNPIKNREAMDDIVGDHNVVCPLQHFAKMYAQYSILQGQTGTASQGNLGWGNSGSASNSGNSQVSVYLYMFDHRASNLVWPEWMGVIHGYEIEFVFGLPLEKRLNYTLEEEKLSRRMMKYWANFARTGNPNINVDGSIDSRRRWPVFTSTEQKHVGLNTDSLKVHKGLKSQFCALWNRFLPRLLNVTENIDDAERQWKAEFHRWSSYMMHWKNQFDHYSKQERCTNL
Chain of BACE1 (P56817 46-501): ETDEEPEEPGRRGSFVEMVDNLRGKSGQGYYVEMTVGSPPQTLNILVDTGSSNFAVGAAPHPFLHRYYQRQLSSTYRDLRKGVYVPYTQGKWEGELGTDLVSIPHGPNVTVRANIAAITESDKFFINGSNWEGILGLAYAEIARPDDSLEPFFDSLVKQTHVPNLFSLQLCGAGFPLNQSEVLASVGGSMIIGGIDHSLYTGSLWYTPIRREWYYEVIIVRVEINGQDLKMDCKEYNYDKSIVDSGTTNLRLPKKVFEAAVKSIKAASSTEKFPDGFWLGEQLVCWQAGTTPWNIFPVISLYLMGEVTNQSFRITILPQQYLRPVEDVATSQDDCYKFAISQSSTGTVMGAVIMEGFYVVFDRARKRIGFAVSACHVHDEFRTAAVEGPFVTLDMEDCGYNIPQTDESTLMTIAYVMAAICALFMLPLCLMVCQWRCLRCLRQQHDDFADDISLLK

What is called IC50 is the concentration at which inhibition is half-maximal. With `N=C(N)NN` [AG, aminoguanidine, reference compound], the “IC50 AGE Formation” value with AGE formation (extracts and fractions) was determined as 104.87 ± 6.94 µg/mL (≈ 1420 µM). Besides, in the assay on AGE formation, the IC50 was determined as 762 ± 69.1 µM.

Take `COc1ccc2cc3[n+](cc2c1OC)CCc1cc2c(cc1-3)OCO2` [Berberine, berberine, reference compound]: the IC50 in assay [1] (extracts and fractions, 15 min, pH 7.8, mean ± S.D. (n = 3), read-out: IC50 AChE (converted)) was 0.416 µM; in assay [1] (setting [3]), 0.42 ± 0.03 µM.

Regarding `COc1c(O)ccc2c1C(=O)c1ccccc1C2=O` [Compound 1, alizarin-1-methyl ether], the IC50 is 175 ± 10.7 µM in assay [1] (setting [3]), 450 ± 8.82 µM in assay [2] (setting [4]), 192 ± 7.32 µM against BACE1 and 292.4 ± 2.28 µM with AGE formation.

Turning to `COc1c(O)cc2c(c1OC)C(=O)c1ccccc1C2=O` [Compound 2, 1,2-dimethoxy-3-hydroxy anthraquinone], the IC50 in assay [1] (setting [3]) was 147 ± 13.3 µM; in assay [2] (setting [4]), 442 ± 10.6 µM; at BACE1 it was 115 ± 21.6 µM; with AGE formation, 438 ± 23.9 µM.

In the case of `COc1ccc2c(c1)C(=O)c1ccccc1C2=O` [Compound 3, 2-methoxy anthraquinone], the IC50 was 187 ± 20.1 µM in assay [1] (setting [3]), 230 ± 5.97 µM in assay [2] (setting [4]), 9.29 ± 1.92 µM against BACE1 and 88.4 ± 3.28 µM with AGE formation.

Take `COc1cc2c(cc1CO)C(=O)c1ccccc1C2=O` [Compound 4, 2-hydroxymethyl-3-methoxy anthraquinone]: the half-maximal inhibitory concentration (IC50) in assay [1] (setting [3]) was 27 ± 1.49 µM; in assay [2] (setting [4]) it was more than 500 µM; on BACE1 it was more than 200 µM; in the assay on AGE formation, 530 ± 15.5 µM.

On to `O=C1c2ccccc2C(=O)c2cc(CO)c(O)cc21` [Compound 5, 2-hydroxymethyl-3-hydroxy anthraquinone], for which the IC50 in assay [1] (setting [3]) is 19.1 ± 3.58 µM; in assay [2] (setting [4]) it was 459 ± 13.1 µM; on BACE1, more than 200 µM; in the assay with AGE formation it was 355 ± 12 µM.

As for `COc1c(C)c(O)cc2c1C(=O)c1ccccc1C2=O` [Compound 6, rubiadin-1-methyl ether], the IC50 in assay [1] (setting [3]) was 87.2 ± 6.56 µM; in assay [2] (setting [4]) it was more than 500 µM; against BACE1, 25.9 ± 2.11 µM; in the assay with AGE formation it was more than 1000 µM.

`O=C1c2ccccc2C(=O)c2c(O)cc(CO)cc21` [Compound 7, 1-hydroxy-3-hydroxymethyl anthraquinone]: the results for the IC50 in assay [1] (setting [3]) and in assay [2] (setting [4]) were 96.4 ± 17.2 µM and more than 500 µM, respectively.

`Cc1c(O)cc2c(c1O)C(=O)c1ccccc1C2=O` [Compound 8, rubiadin]: the IC50 in assay [1] (setting [3]) was 44.3 ± 12.2 µM; in assay [2] (setting [4]), more than 500 µM; against BACE1, 19.8 ± 3.05 µM; in the assay with AGE formation, 522 ± 10.1 µM.

As for `COc1cc2ccc(=O)oc2cc1O` [Compound 9, scopoletin], the IC50 is 236 ± 21.2 µM in assay [1] (setting [3]), 50.4 ± 1.61 µM in assay [2] (setting [4]), more than 200 µM on BACE1 and 5.43 ± 0.11 µM in the assay on AGE formation.

As for `CC[C@H](CC[C@@H](C)[C@H]1CC[C@H]2[C@@H]3CC=C4C[C@@H](O)CC[C@]4(C)[C@H]3CC[C@]12C)C(C)C` [Compound 10, β-sitosterol], the IC50 in assay [1] (IC50 AChE) and in assay [2] (IC50 BChE) was more than 500 µM each time.

For the origin of these results see publication PMC6151407 (Molecules : A Journal of Synthetic Chemistry and Natural …, 2017).
